Measured values taken from the supplement of paper PMC9663587.

Legend:
[1] = compound: CN1CCN(CCOc2cc(OC3CCOCC3)c3c(Nc4c(Cl)ccc5c4OCO5)ncnc3c2)CC1 [Saracatinib/AZD0530]
[2] = compound: CN(C)C/C=C/C(=O)NC1=CC=C(C=C1)C(=O)NC2=CC=CC(=C2)NC3=NC=NC(=C3)C4=CNC5=CC=CC=C54 [THZ-P1-2]
[3] = compound: CCCCOc1c(C(=O)c2c(F)cc(C)cc2F)c[nH]c2nncc1-2
[4] = compound: CCNC(=O)c1noc(-c2cc(C(C)C)c(O)cc2O)c1-c1ccc(CN2CCOCC2)cc1 [Luminespib/NVP-AUY922]
[5] = compound: CN(C)C/C=C/C(=O)Nc1ccc(O[C@@H]2CCC[C@@H](Nc3ncc(Cl)c(-c4c[nH]c5ccccc45)n3)C2)cc1 [BSJ-01-175]
[6] = compound: Cc1cc(Nc2ncc(Cl)c(Nc3ccccc3S(=O)(=O)C(C)C)n2)c(OC(C)C)cc1C1CCNCC1 [Ceritinib/LDK378]
[7] = compound: CN(C)C/C=C/C(=O)Nc1ccc(C(=O)Nc2cccc(Nc3ncc(Cl)c(-c4c[nH]c5ccccc45)n3)c2)cc1 [THZ1]; assay: increase in dead-cell fraction, 72 h; higher = more death;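 also: breast cancer cell lines in 384-well plates, stained with Hoechst plus LIVE/DEAD far red dye and imaged, cells above an LDR intensity threshold counted dead, Hoechst-negative corpses included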
[8] = compound: CCc1cnn2c(NCc3ccc[n+]([O-])c3)cc(N3CCCC[C@H]3CCO)nc12; assay: as above
[9] = compound: CCN1CCN(Cc2ccc(Nc3ncc(F)c(-c4cc(F)c5nc(C)n(C(C)C)c5c4)n3)nc2)CC1; assay: as above
[10] = compound: CN1CC[C@H](c2c(O)cc(O)c3c(=O)cc(-c4ccccc4Cl)oc23)[C@H](O)C1 [Flavopiridol]; assay: as above
[11] = compound: C=CC(=O)Nc1ccc(C(=O)Nc2[nH]nc3c2CN(C(=O)N[C@H](CN(C)C)c2ccccc2)C3(C)C)cc1 [YKL-5-124]; assay: as above
[12] = compound: CC(=O)c1c(C)c2cnc(Nc3ccc(N4CCNCC4)cn3)nc2n(C2CCCC2)c1=O; assay: as above
[13] = compound: CN(C)C/C=C/C(=O)Nc1ccc(C(=O)N2CCC[C@@H](Nc3ncc(Cl)c(-c4c[nH]c5ccccc45)n3)C2)cc1 [THZ531]; assay: as above
[14] = compound: CC(=O)c1c(C)c2cnc(Nc3ccc(N4CCN(CCOCCOCCOCCNC(=O)COc5cccc6c5C(=O)N(C5CCC(=O)NC5=O)C6=O)CC4)cn3)nc2n(C2CCCC2)c1=O [BSJ-03-123]; assay: as above
[15] = compound: CCOc1cc2ncc(C#N)c(Nc3ccc(OCc4ccccn4)c(Cl)c3)c2cc1NC(=O)/C=C/CN(C)C [Neratinib/HKI272]; assay: as above
[16] = compound: CN(C)C(=O)c1cc2cnc(Nc3ccc(N4CCNCC4)cn3)nc2n1C1CCCC1 [LEE011/Ribociclib]; assay: as above
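For GR50, 72 h in this document: breast cancer and non-malignant breast epithelial cell lines, Deep Dye Drop or Dye Drop imaging, nine half-log doses, GR normalized to time-zero plates and DMSO-only controls.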

ZR7530
GR50, 72 h [1]: 0.533 µM | GR50, 72 h [2]: 1.64 µM | GR50, 72 h [3]: 0.152 µM | GR50, 72 h [4]: 0.00303 µM | GR50, 72 h [5]: 0.0237 µM | GR50, 72 h [6]: 1.75 µM | increase in dead-cell fraction ([7]; 0.0001 µM): 0.0034 | increase in dead-cell fraction ([7]; 0.0003162 µM): 0.0045 | increase in dead-cell fraction ([7]; 0.001 µM): 0 | increase in dead-cell fraction ([7]; 0.003162 µM): -0.0128 | increase in dead-cell fraction ([7]; 0.01 µM): 0.0019 | increase in dead-cell fraction ([7]; 0.03162 µM): 0.0253 | increase in dead-cell fraction ([7]; 0.1 µM): 0.0921 | increase in dead-cell fraction ([7]; 0.3162 µM): 0.097 | increase in dead-cell fraction ([7]; 1 µM): 0.229 | increase in dead-cell fraction ([8]; 0.0001 µM): -0.0019 | increase in dead-cell fraction ([8]; 0.0003162 µM): 0.0016 | increase in dead-cell fraction ([8]; 0.001 µM): -0.02 | increase in dead-cell fraction ([8]; 0.003162 µM): 0.0075 | increase in dead-cell fraction ([8]; 0.01 µM): -0.0026 | increase in dead-cell fraction ([8]; 0.03162 µM): 0.0388 | increase in dead-cell fraction ([8]; 0.1 µM): 0.103 | increase in dead-cell fraction ([8]; 0.3162 µM): 0.138 | increase in dead-cell fraction ([8]; 1 µM): 0.131 | increase in dead-cell fraction ([9]; 0.001 µM): 0.0055 | increase in dead-cell fraction ([9]; 0.003162 µM): -0.0075 | increase in dead-cell fraction ([9]; 0.01 µM): 0.0272 | increase in dead-cell fraction ([9]; 0.03162 µM): 0.0826 | increase in dead-cell fraction ([9]; 0.1 µM): 0.0398 | increase in dead-cell fraction ([9]; 0.3162 µM): 0.0332 | increase in dead-cell fraction ([9]; 1 µM): 0.0706 | increase in dead-cell fraction ([9]; 3.162 µM): 0.0448 | increase in dead-cell fraction ([9]; 10 µM): 0.0361 | increase in dead-cell fraction ([10]; 0.0001 µM): -0.0012 | increase in dead-cell fraction ([10]; 0.0003162 µM): 0.0085 | increase in dead-cell fraction ([10]; 0.001 µM): -0.0127 | increase in dead-cell fraction ([10]; 0.003162 µM): -0.0029 | increase in dead-cell fraction ([10]; 0.01 µM): 0.0104 | increase in dead-cell fraction ([10]; 0.03162 µM): 0.0159 | increase in dead-cell fraction ([10]; 0.1 µM): 0.0202 | increase in dead-cell fraction ([10]; 0.3162 µM): -0.0023 | increase in dead-cell fraction ([10]; 1 µM): 0.191 | increase in dead-cell fraction ([11]; 0.001 µM): 0.039 | increase in dead-cell fraction ([11]; 0.003162 µM): 0.0535 | increase in dead-cell fraction ([11]; 0.01 µM): 0.0595 | increase in dead-cell fraction ([11]; 0.03162 µM): 0.0181 | increase in dead-cell fraction ([11]; 0.1 µM): 0.0418 | increase in dead-cell fraction ([11]; 0.3162 µM): 0.04 | increase in dead-cell fraction ([11]; 1 µM): 0.0587 | increase in dead-cell fraction ([11]; 3.162 µM): 0.0125 | increase in dead-cell fraction ([11]; 10 µM): 0.105 | increase in dead-cell fraction ([12]; 0.0003162 µM): 0.0003 | increase in dead-cell fraction ([12]; 0.001 µM): -0.0021 | increase in dead-cell fraction ([12]; 0.003162 µM): 0.0019 | increase in dead-cell fraction ([12]; 0.01 µM): -0.0031 | increase in dead-cell fraction ([12]; 0.03162 µM): 0.0102 | increase in dead-cell fraction ([12]; 0.1 µM): 0.0763 | increase in dead-cell fraction ([12]; 0.3162 µM): 0.0662 | increase in dead-cell fraction ([12]; 1 µM): 0.0375 | increase in dead-cell fraction ([12]; 3.162 µM): 0.0348 | increase in dead-cell fraction ([13]; 0.0001 µM): 0.0074 | increase in dead-cell fraction ([13]; 0.0003162 µM): 0.0167 | increase in dead-cell fraction ([13]; 0.001 µM): 0.0003 | increase in dead-cell fraction ([13]; 0.003162 µM): 0.0105 | increase in dead-cell fraction ([13]; 0.01 µM): -0.0154 | increase in dead-cell fraction ([13]; 0.03162 µM): -0.0168 | increase in dead-cell fraction ([13]; 0.1 µM): 0.129 | increase in dead-cell fraction ([13]; 0.3162 µM): 0.234 | increase in dead-cell fraction ([13]; 1 µM): 0.0722 | increase in dead-cell fraction ([14]; 0.001 µM): 0.0025 | increase in dead-cell fraction ([14]; 0.003162 µM): 0.0062 | increase in dead-cell fraction ([14]; 0.01 µM): 0.0113 | increase in dead-cell fraction ([14]; 0.03162 µM): 0.0285 | increase in dead-cell fraction ([14]; 0.1 µM): 0.002 | increase in dead-cell fraction ([14]; 0.3162 µM): 0.0395 | increase in dead-cell fraction ([14]; 1 µM): 0.0336 | increase in dead-cell fraction ([14]; 3.162 µM): 0.0895 | increase in dead-cell fraction ([14]; 10 µM): 0.039 | increase in dead-cell fraction ([15]; 0.0003162 µM): 0.0037 | increase in dead-cell fraction ([15]; 0.001 µM): -0.0057 | increase in dead-cell fraction ([15]; 0.003162 µM): -0.0122 | increase in dead-cell fraction ([15]; 0.01 µM): -0.0066 | increase in dead-cell fraction ([15]; 0.03162 µM): 0.0011 | increase in dead-cell fraction ([15]; 0.1 µM): 0.0186 | increase in dead-cell fraction ([15]; 0.3162 µM): 0.0145 | increase in dead-cell fraction ([15]; 1 µM): 0.025 | increase in dead-cell fraction ([15]; 3.162 µM): 0.0495 | increase in dead-cell fraction ([16]; 0.001 µM): 0.0122 | increase in dead-cell fraction ([16]; 0.003162 µM): 0.0504 | increase in dead-cell fraction ([16]; 0.01 µM): 0.0152 | increase in dead-cell fraction ([16]; 0.03162 µM): 0.0426 | increase in dead-cell fraction ([16]; 0.1 µM): 0.0177 | increase in dead-cell fraction ([16]; 0.3162 µM): 0.0519 | increase in dead-cell fraction ([16]; 1 µM): 0.0531 | increase in dead-cell fraction ([16]; 3.162 µM): 0.0382 | increase in dead-cell fraction ([16]; 10 µM): 0.0703
